From patent publication US6340704B1, “Cell differentiation inducing amide derivatives, their production and use” (Takeda Chemical Industries, Ltd., priority 1997, dated 2002)
Where a name gives a salt, the structure may show the parent alone. Marks after values point to notes of the source that are not given here.

Assays:
[1] = tested on: Mouse-derived MC3T3-E1 osteoblast cells; assay: Induction of alkaline phosphatase (ALP) production in mouse osteoblastic cells, with or without 3 ng/ml BMP-4/7 heterodimer; format: cell-based; conditions: 72 hours; for ALP Activity (1000 × A405 ± SD) BMP Addition: medium with 3 ng/ml BMP-4/7 heterodimer; for ALP Activity (1000 × A405 ± SD) BMP Non-Addition: no BMP
Procedure: Induction of Alkaline Phosphatase (ALP) Production in Mouse Osteoblastic Cells
Mouse-derived MC3T3-E1 osteoblast cells were seeded in a 96-well microtiter plate of α-minimum essential medium containing FCS (fetal calf serum) (8000 cells/well). After two days when the growth had become confluent, the test substance diluted to various concentrations in Table 1 with the medium either containing or not containing 3 ng/ml of BMP-4/7 heterodimer (described in Japanese Patent Application No. 111255/1994) was added, and the microtiter plate was further incubated for 72 hours. The plate was washed once with a physiological saline solution, followed by addition of a substrate solution. The resulting mixture was incubated at room temperature for 15 minutes, followed by addition of 0.05N NaOH to terminate the reaction. The absorbance at 405 nm was measured.

## CN(C)CCCNC(=O)c1cc(-c2ccc3c(c2)OCO3)c2c3c(ccc2c1)OCO3 (as salt: hydrochloride) [Example 19, N-(3-Dimethylaminopropyl)-9-(1,3-benzodioxole-5-yl)-naphtho [1,2-d]-1,3-dioxole-7-carboxamide hydrochloride]
other
  melting point: 233 to 240 °C

## CNC(=O)c1cc2ccc3c(c2c(-c2ccc4c(c2)OCO4)c1CO)OCO3 [Example 1, N-Methyl-9-(1,3-benzodioxole-5-yl)-8-hydroxymethylnaphtho[1,2-d]-1,3-dioxole-7-carboxamide]
[1]; compound 0.01 μM
  ALP Activity (1000 × A405 ± SD) BMP Addition: 193 ± 15 1000 × A405
  ALP Activity (1000 × A405 ± SD) BMP Non-Addition: 50 ± 5 1000 × A405
[1]; compound 0.1 μM
  ALP Activity (1000 × A405 ± SD) BMP Addition: 213 ± 5* 1000 × A405
  ALP Activity (1000 × A405 ± SD) BMP Non-Addition: 58 ± 5* 1000 × A405
[1]; compound 1 μM
  ALP Activity (1000 × A405 ± SD) BMP Addition: 386 ± 30* 1000 × A405
  ALP Activity (1000 × A405 ± SD) BMP Non-Addition: 102 ± 5* 1000 × A405
other
  melting point: 233 to 235 °C

## CNC(=O)c1cc2ccc3c(c2c(-c2ccc(OC)cc2)c1CO)OCO3 [Example 2, N-Methyl-9-(4-methoxyphenyl)-8-hydroxymethyl-naphtho[1,2-d]-1,3-dioxole-7-carboxamide]
[1]; compound 0.01 μM
  ALP Activity (1000 × A405 ± SD) BMP Addition: 323 ± 13 1000 × A405
  ALP Activity (1000 × A405 ± SD) BMP Non-Addition: 80 ± 2 1000 × A405
[1]; compound 0.1 μM
  ALP Activity (1000 × A405 ± SD) BMP Addition: 354 ± 15* 1000 × A405
  ALP Activity (1000 × A405 ± SD) BMP Non-Addition: 95 ± 7* 1000 × A405
[1]; compound 1 μM
  ALP Activity (1000 × A405 ± SD) BMP Addition: 478 ± 17* 1000 × A405
  ALP Activity (1000 × A405 ± SD) BMP Non-Addition: 162 ± 18* 1000 × A405
other
  melting point: 187 to 190 °C

## CNC(=O)c1cc2ccc3c(c2c(-c2ccc(Cl)cc2)c1CO)OCO3 [Example 3, N-Methyl-9-(4-chlorophenyl)-8-hydroxymethyl-naphtho[1,2-d]-1,3-dioxole-7-carboxamide]
other
  melting point: 202 to 204 °C

## CNC(=O)c1cc2ccc3c(c2c(-c2ccc4ccccc4c2)c1CO)OCO3 [Example 4, N-Methyl-9-(2-naphthyl)-8-hydroxymethyl-naphtho[1,2-d]-1,3-dioxole-7-carboxamide]
[1]; compound 0.01 μM
  ALP Activity (1000 × A405 ± SD) BMP Addition: 301 ± 8 1000 × A405
  ALP Activity (1000 × A405 ± SD) BMP Non-Addition: 86 ± 3 1000 × A405
[1]; compound 0.1 μM
  ALP Activity (1000 × A405 ± SD) BMP Addition: 389 ± 25* 1000 × A405
  ALP Activity (1000 × A405 ± SD) BMP Non-Addition: 108 ± 7* 1000 × A405
[1]; compound 1 μM
  ALP Activity (1000 × A405 ± SD) BMP Addition: 554 ± 49* 1000 × A405
  ALP Activity (1000 × A405 ± SD) BMP Non-Addition: 168 ± 4* 1000 × A405
other
  melting point: 207 to 210 °C

## CNC(=O)c1cc2ccc3c(c2c(-c2ccc(F)cc2)c1CO)OCO3 [Example 5, N-Methyl-9-(4-fluorophenyl)-8-hydroxymethyl-naphtho[1,2-d]-1,3-dioxole-7-carboxamide]
[1]; compound 0.01 μM
  ALP Activity (1000 × A405 ± SD) BMP Addition: 170 ± 20 1000 × A405
  ALP Activity (1000 × A405 ± SD) BMP Non-Addition: 49 ± 1 1000 × A405
[1]; compound 0.1 μM
  ALP Activity (1000 × A405 ± SD) BMP Addition: 237 ± 14* 1000 × A405
  ALP Activity (1000 × A405 ± SD) BMP Non-Addition: 62 ± 3* 1000 × A405
[1]; compound 1 μM
  ALP Activity (1000 × A405 ± SD) BMP Addition: 431 ± 26* 1000 × A405
  ALP Activity (1000 × A405 ± SD) BMP Non-Addition: 157 ± 11* 1000 × A405
other
  melting point: 210 to 213 °C

## CNC(=O)c1cc2ccc3c(c2c(-c2ccc(C)cc2)c1CO)OCO3 [Example 6, N-Methyl-9-(4-methylphenyl)-8-hydroxymethyl-naphtho[1,2-d]-1,3-dioxole-7-carboxamide]
[1]; compound 0.01 μM
  ALP Activity (1000 × A405 ± SD) BMP Addition: 177 ± 14 1000 × A405
  ALP Activity (1000 × A405 ± SD) BMP Non-Addition: 51 ± 2 1000 × A405
[1]; compound 0.1 μM
  ALP Activity (1000 × A405 ± SD) BMP Addition: 248 ± 6* 1000 × A405
  ALP Activity (1000 × A405 ± SD) BMP Non-Addition: 74 ± 1* 1000 × A405
[1]; compound 1 μM
  ALP Activity (1000 × A405 ± SD) BMP Addition: 459 ± 35* 1000 × A405
  ALP Activity (1000 × A405 ± SD) BMP Non-Addition: 168 ± 1* 1000 × A405
other
  melting point: 210 to 212 °C

## CNC(=O)c1cc2cc3c(cc2c(-c2ccc4c(c2)OCO4)c1CO)OCO3 [Example 7, N-Methyl-(1,3-benzodioxole-5-yl)-7-hydroxymethyl-naphto[2,3-d]-1,3-dioxole-6-carboxamide]
other
  melting point: 222 to 224 °C

## NC(=O)c1nc2ccc3c(c2c(-c2ccc4c(c2)OCO4)c1CO)OCO3 [Example 8, 9(1,3-Benzodioxole-5-yl)-8hydroxymethyl-1,3-dioxolo[4,5-f]quinoline-7-carboxamide]
[1]; compound 0.01 μM
  ALP Activity (1000 × A405 ± SD) BMP Addition: 426 ± 28 1000 × A405
  ALP Activity (1000 × A405 ± SD) BMP Non-Addition: 105 ± 22 1000 × A405
[1]; compound 0.1 μM
  ALP Activity (1000 × A405 ± SD) BMP Addition: 477 ± 15* 1000 × A405
  ALP Activity (1000 × A405 ± SD) BMP Non-Addition: 134 ± 12 1000 × A405
[1]; compound 1 μM
  ALP Activity (1000 × A405 ± SD) BMP Addition: 570 ± 63* 1000 × A405
  ALP Activity (1000 × A405 ± SD) BMP Non-Addition: 186 ± 26 1000 × A405

## CNC(=O)c1nc2ccc(C)cc2c(-c2ccccc2)c1CO [Example 9, N-methyl-(3-hydroxmethyl-6-methyl-4-phenylquinoline)-2-carboxamide]
other
  melting point: 136 to 137 °C

## CNC(=O)c1nc2ccc(C)cc2c(-c2ccc(F)cc2F)c1CO [Example 10, N-Methyl-[3-hydroxymethyl-6-methyl-4-(2,4-difluorophenyl)quinoline]-2-carboxamide]
other
  melting point: 140 to 141 °C

## COc1ccc(-c2cc(C(N)=O)cc3ccc4c(c23)OCO4)cc1 [Example 11, 9(4-Methoxyphenyl)-naphtho[1,2,-d]-1,3,-dioxole-7-carboxamide]
other
  melting point: 187 to 189 °C

## NC(=O)c1cc(-c2ccc(C(F)(F)F)cc2)c2c3c(ccc2c1)OCO3 [Example 12, 9-(4-Trifluromethylphenyl)-naphto[1,2-d]-1,3-dixole-7-carboxamide]
other
  melting point: 207 to 209 °C

## Cc1c(C(N)=O)cc(-c2ccc3c(c2)OCO3)c2c3c(ccc12)OCO3 [Example 13, 9-(1,3-Benzodioxole-5-yl)-6-methyl-naphto[1,2-d]-1,3-dioxole-7-carboxamide]
other
  melting point: 237 to 239 °C

## NC(=O)c1cc(-c2ccc3c(c2)OCO3)c2c3c(ccc2c1)OCO3 [Example 14, 9-(1,3-Benzodioxole-5-yl)-naphtho[1,2-d]-1,3-dioxole-7-carboxamide]
other
  melting point: 267 to 269 °C

## CNC(=O)c1cc(-c2ccc3c(c2)OCO3)c2c3c(ccc2c1)OCO3 [Example 15, N-Methyl-9-(1,3-benzodioxole-5-yl)-naphtho;[1,2,-d]-1,3-dioxole-7-carboxamide]
other
  melting point: 206 to 208 °C

## CN(C)C(=O)c1cc(-c2ccc3c(c2)OCO3)c2c3c(ccc2c1)OCO3 [Example 16, N,N-Dimethyl-9-(1,3,-benzodioxole-5-yl)-naphtho[1,2-d]-1,3,-dioxole-7-carboxamide]
other
  melting point: 160 to 161 °C

## Cc1c(C(N)=O)nc2ccc3c(c2c1-c1ccc2c(c1)OCO2)OCO3 [Example 22, 9-(1,3-Benzodioxole-5-yl)-8-methyl-1,3-dioxole[4,4-f]quinoline-7-carboxamide]
[1]; compound 0.01 μM
  ALP Activity (1000 × A405 ± SD) BMP Addition: 187 ± 3 1000 × A405
  ALP Activity (1000 × A405 ± SD) BMP Non-Addition: 135 ± 8* 1000 × A405
[1]; compound 0.1 μM
  ALP Activity (1000 × A405 ± SD) BMP Addition: 226 ± 6* 1000 × A405
  ALP Activity (1000 × A405 ± SD) BMP Non-Addition: 149 ± 11* 1000 × A405
[1]; compound 1 μM
  ALP Activity (1000 × A405 ± SD) BMP Addition: 326 ± 18* 1000 × A405
  ALP Activity (1000 × A405 ± SD) BMP Non-Addition: 190 ± 10* 1000 × A405

## CNC(=O)c1nc2ccc3c(c2c(-c2ccc4c(c2)OCO4)c1C)OCO3 [Example 23, N-methyl-9-(1,3-benzodioxole-5yl)-8-methyl-1,3-dioxolo [4,5-f]quinoline-7-carboxamide]
other
  melting point: 141 to 146 °C

## CNC(=O)c1cc2ccc3c(c2c(-c2ccc(OC(F)(F)F)cc2)c1CO)OCO3 [Example 24, N-Methyl-9-(4-trifluoromethoxyphenyl)-8-hydroxymethylnaphtho[1,2-d]-1,3-dioxol-7-carboxamide]
other
  melting point: 195 to 197 °C

## NC(=O)c1cc(-c2ccc(OC(F)(F)F)cc2)c2c3c(ccc2c1)OCO3 [Example 25, 9-(4-Trifluoromethoxyphenyl)naphtho[1,2-d]-1,3-dioxol-7-carboxamide]
other
  melting point: 188 to 190 °C

## CNC(=O)c1cc(-c2ccc(F)cc2)c2c3c(ccc2n1)OCO3 [Example 46, 9-(4-Fluorophenyl)-N-methyl-1,3-dioxolo[4,5-F]quinoline-7-carboxamide]
other
  melting point: 233 to 235 °C

## O=C(c1cc(-c2ccc(F)cc2)c2c3c(ccc2n1)OCO3)N1CCN(Cc2ccccc2)CC1 [Example 48, N-Benzyl-N-[9-(4-fluorophenyl)-1,3-dioxolo[4,5-f]quinoline-7-carbonyl]piperazine]
other
  melting point: 147 to 148 °C
